Assay results published in PubChem BioAssay (NCI).
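Step 1: Grow cells in 96-well plates. Step 2: Expose to compound for 48 hours at 5 concentrations. Step 3: Interpolate endpoints linearly; if unreached, use highest concentration. Definition used: TGI = concentration required for complete inhibition of growth.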

Columns and labels:
Assay in all cases: DTP human tumour cell line panel, 48 h
RXF 393 renal = tested on: RXF 393 renal
MCF7 breast = tested on: MCF7 breast
UACC-62 melanoma = tested on: UACC-62 melanoma
HOP-62 NSCLC = tested on: HOP-62 NSCLC
HT29 colon = tested on: HT29 colon
KM12 colon = tested on: KM12 colon
HCT-116 colon = tested on: HCT-116 colon
CAKI-1 renal = tested on: CAKI-1 renal
NCI/ADR-RES ovarian = tested on: NCI/ADR-RES ovarian
TK-10 renal = tested on: TK-10 renal
IGROV1 ovarian = tested on: IGROV1 ovarian
A549 NSCLC = tested on: A549 NSCLC
SW-620 colon = tested on: SW-620 colon
LOX IMVI melanoma = tested on: LOX IMVI melanoma
SN12C renal = tested on: SN12C renal
CCRF-CEM leukemia = tested on: CCRF-CEM leukemia
HOP-92 NSCLC = tested on: HOP-92 NSCLC
PC-3 prostate = tested on: PC-3 prostate
OVCAR-5 ovarian = tested on: OVCAR-5 ovarian
COLO 205 colon = tested on: COLO 205 colon
786-0 renal = tested on: 786-0 renal
UO-31 renal = tested on: UO-31 renal
SK-OV-3 ovarian = tested on: SK-OV-3 ovarian
HCC-2998 colon = tested on: HCC-2998 colon
NCI-H522 lung = tested on: NCI-H522 lung
OVCAR-3 ovarian = tested on: OVCAR-3 ovarian
M14 melanoma = tested on: M14 melanoma
EKVX NSCLC = tested on: EKVX NSCLC
ACHN renal = tested on: ACHN renal
NCI-H460 lung = tested on: NCI-H460 lung
A498 renal = tested on: A498 renal
SNB-75 CNS = tested on: SNB-75 CNS
NCI-H226 lung = tested on: NCI-H226 lung
OVCAR-4 ovarian = tested on: OVCAR-4 ovarian
MDA-MB-231 breast = tested on: MDA-MB-231 breast
BT-549 breast = tested on: BT-549 breast
OVCAR-8 ovarian = tested on: OVCAR-8 ovarian
HCT-15 colon = tested on: HCT-15 colon
K-562 leukemia = tested on: K-562 leukemia
SK-MEL-28 melanoma = tested on: SK-MEL-28 melanoma
MDA-N = tested on: MDA-N
MOLT-4 leukemia = tested on: MOLT-4 leukemia
SF-539 CNS = tested on: SF-539 CNS
SF-295 CNS = tested on: SF-295 CNS
SR leukemia = tested on: SR leukemia
HS 578T breast = tested on: HS 578T breast
DU-145 prostate = tested on: DU-145 prostate
SF-268 CNS = tested on: SF-268 CNS
SK-MEL-2 melanoma = tested on: SK-MEL-2 melanoma
NCI-H23 lung = tested on: NCI-H23 lung
MDA-MB-435 = tested on: MDA-MB-435
U251 CNS = tested on: U251 CNS
UACC-257 melanoma = tested on: UACC-257 melanoma
T-47D breast = tested on: T-47D breast
SK-MEL-5 melanoma = tested on: SK-MEL-5 melanoma
RPMI-8226 leukemia = tested on: RPMI-8226 leukemia
HL-60(TB) leukemia = tested on: HL-60(TB) leukemia
SNB-19 CNS = tested on: SNB-19 CNS
MALME-3M melanoma = tested on: MALME-3M melanoma

Measured: TGI

Cc1c(C(=O)O)n2c(C)nnc2c2ccccc12
not listed: RPMI-8226 leukemia | HL-60(TB) leukemia | SNB-19 CNS | MALME-3M melanoma
> 100 µM: all other assays above

Cn1c(-c2ccccc2)cc(-c2cccs2)c1-c1ccsc1
not listed: NCI-H522 lung | SK-MEL-28 melanoma | MALME-3M melanoma
> 100 µM: all other assays above

O=S1OC[C@H](CCCl)O1 (stereo partly drawn)
not listed: RXF 393 renal | SF-268 CNS
> 100 µM: all other assays above
